# Measured values: ChEMBL document CHEMBL1782045, “Discovery, synthesis, and investigation of the antitumor activity of novel piperazinylpyrimidine derivatives” (Eur J Med Chem, 2011)
# Experiments:
# [1] = target: Epithelial discoidin domain-containing receptor 1 (Homo sapiens) (UniProt Q08345); experiment: Binding affinity to human DDR1 at 10 uM incubated for 1 hr by kinase binding assay relative to untreated control
# [2] = system: RPMI-8226; experiment: Cytotoxicity against human RPMI8226 cells after 48 hrs by sulforhodamine B assay; assay type: cell-based; conditions: rpmi-8226, 48 h
# [3] = system: RXF 393; experiment: Cytotoxicity against human RXF393 cells after 48 hrs by sulforhodamine B assay; assay type: cell-based; conditions: rxf 393, 48 h
# [4] = system: T47D; experiment: Growth inhibition of human T47D cells after 48 hrs by sulforhodamine B assay; assay type: functional
# [5] = system: SNB-19; experiment: Cytotoxicity against human SNB19 cells after 48 hrs by sulforhodamine B assay; assay type: cell-based; conditions: snb-19, 48 h
# [6] = system: Tyrosine-protein kinase ABL1 (Homo sapiens), P00519 [F317L]; experiment: Binding affinity to human phosphorylated ABL1 F317L mutant at 10 uM incubated for 1 hr by kinase binding assay relative to untreated control
# [7] = target: Tyrosine-protein kinase ABL1 (Homo sapiens) (UniProt P00519); experiment: Inhibition of human ABL using gamma-33P-ATP as substrate assessed as enzyme functional activity at 1 uM by scintillation counting relative to untreated control; parameters: scale not given: the % may be the effect or the level left
# [8] = system: HCC 2998; experiment: Cytotoxicity against human HCC2998 cells after 48 hrs by sulforhodamine B assay; assay type: cell-based; conditions: hcc 2998, 48 h
# [9] = target: RAC-beta serine/threonine-protein kinase (Homo sapiens) (UniProt P31751); experiment: Inhibition of human PKBbeta using gamma-33P-ATP as substrate assessed as enzyme functional activity at 1 uM by scintillation counting relative to untreated control; parameters: scale not given: the % may be the effect or the level left
# [10] = system: Serine/threonine-protein kinase B-raf (Homo sapiens), P15056 [V600E]; experiment: Binding affinity to human BRAF V600E mutant at 10 uM incubated for 1 hr by kinase binding assay relative to untreated control
# [11] = system: A549; experiment: Growth inhibition of human A549 cells after 48 hrs by sulforhodamine B assay; assay type: functional; conditions: A549, 48 h
# [12] = system: CAKI-1; experiment: Cytotoxicity against human Caki1 cells after 48 hrs by sulforhodamine B assay; assay type: cell-based; conditions: caki-1, 48 h
# [13] = system: MDA-MB-231; experiment: Cytotoxicity against human MDA-MB-231 cells after 48 hrs by sulforhodamine B assay; assay type: cell-based; conditions: mda-mb-231, 48 h
# [14] = system: SNB-19; experiment: Growth inhibition of human SNB19 cells after 48 hrs by sulforhodamine B assay; assay type: functional; conditions: SNB-19, 48 h
# [15] = system: MDA-MB-468; experiment: Cytotoxicity against human MDA-MB-468 cells after 48 hrs by sulforhodamine B assay; assay type: cell-based; conditions: mda-mb-468, 48 h
# [16] = target: Receptor-type tyrosine-protein kinase FLT3 (Homo sapiens) (UniProt P36888); experiment: Inhibition of human FLT3 using gamma-33P-ATP as substrate assessed as enzyme functional activity at 1 uM by scintillation counting relative to untreated control; parameters: scale not given: the % may be the effect or the level left
# [17] = target: Receptor-type tyrosine-protein kinase FLT3 (Homo sapiens) (UniProt P36888); experiment: Binding affinity to human FLT3 at 10 uM incubated for 1 hr by kinase binding assay relative to untreated control
# [18] = system: HOP-62; experiment: Growth inhibition of human HOP62 cells after 48 hrs by sulforhodamine B assay; assay type: functional; conditions: HOP-62, 48 h
# [19] = system: HOP-92; experiment: Cytotoxicity against human HOP92 cells after 48 hrs by sulforhodamine B assay; assay type: cell-based; conditions: hop-92, 48 h
# [20] = system: MOLT-4; experiment: Cytotoxicity against human MOLT4 cells after 48 hrs by sulforhodamine B assay; assay type: cell-based; conditions: molt-4, 48 h
# [21] = system: TK-10; experiment: Cytotoxicity against human TK10 cells after 48 hrs by sulforhodamine B assay; assay type: cell-based; conditions: tk-10, 48 h
# [22] = system: NCI/ADR-RES; experiment: Cytotoxicity against human NCI/ADR-RES cells after 48 hrs by sulforhodamine B assay; assay type: cell-based
# [23] = system: OVCAR-5; experiment: Cytotoxicity against human OVCAR5 cells after 48 hrs by sulforhodamine B assay; assay type: cell-based; conditions: ovcar-5, 48 h
# [24] = system: SK-MEL-5; experiment: Cytotoxicity against human SK-MEL-5 cells after 48 hrs by sulforhodamine B assay; assay type: cell-based; conditions: sk-mel-5, 48 h
# [25] = system: EKVX; experiment: Cytotoxicity against human EKVX cells after 48 hrs by sulforhodamine B assay; assay type: cell-based
# [26] = target: Hepatocyte growth factor receptor (Homo sapiens, UniProt P08581); experiment: Inhibition of human MET using gamma-33P-ATP as substrate assessed as enzyme functional activity at 1 uM by scintillation counting relative to untreated control; parameters: scale not given: the % may be the effect or the level left
# [27] = system: Mast/stem cell growth factor receptor Kit (Homo sapiens), P10721 [D816H]; experiment: Binding affinity to human KIT D816H mutant at 10 uM incubated for 1 hr by kinase binding assay relative to untreated control
# [28] = system: UACC-62; experiment: Growth inhibition of human UACC62 cells after 48 hrs by sulforhodamine B assay; assay type: functional; conditions: UACC-62, 48 h
# [29] = system: ACHN; experiment: Cytotoxicity against human ACHN cells after 48 hrs by sulforhodamine B assay; assay type: cell-based
# [30] = system: NCI-H460; experiment: Cytotoxicity against human NCI-H460 cells after 48 hrs by sulforhodamine B assay; assay type: cell-based; conditions: nci-h460, 48 h
# [31] = system: A498; experiment: Cytotoxicity against human A498 cells after 48 hrs by sulforhodamine B assay; assay type: cell-based; conditions: a498, 48 h
# [32] = system: MDA-MB-435; experiment: Cytotoxicity against human MDA-MB-435 cells after 48 hrs by sulforhodamine B assay; assay type: cell-based; conditions: mda-mb-435, 48 h
# [33] = system: SN12C; experiment: Cytotoxicity against human SN12C cells after 48 hrs by sulforhodamine B assay; assay type: cell-based
# [34] = system: NCI-H226; experiment: Growth inhibition of human NCI-H226 cells after 48 hrs by sulforhodamine B assay; assay type: functional; conditions: NCI-H226, 48 h
# [35] = system: SN12C; experiment: Growth inhibition of human SN12C cells after 48 hrs by sulforhodamine B assay; assay type: functional
# [36] = system: NCI-H522; experiment: Growth inhibition of human NCI-H522 cells after 48 hrs by sulforhodamine B assay; assay type: functional; conditions: NCI-H522, 48 h
# [37] = system: K562; experiment: Growth inhibition of human K562 cells after 48 hrs by sulforhodamine B assay; assay type: functional; conditions: K562, 48 h
# [38] = system: SK-MEL-28; experiment: Cytotoxicity against human SK-MEL-28 cells after 48 hrs by sulforhodamine B assay; assay type: cell-based; conditions: sk-mel-28, 48 h
# [39] = target: Mitogen-activated protein kinase 1 (Homo sapiens) (UniProt P28482); experiment: Inhibition of human MAPK1 using gamma-33P-ATP as substrate assessed as enzyme functional activity at 1 uM by scintillation counting relative to untreated control; parameters: scale not given: the % may be the effect or the level left
# [40] = system: MDA-MB-231; experiment: Growth inhibition of human MDA-MB-231 cells after 48 hrs by sulforhodamine B assay; assay type: functional; conditions: MDA-MB-231, 48 h
# [41] = target: Casein kinase I isoform gamma-2 (Homo sapiens) (UniProt P78368); experiment: Binding affinity to human CSNK1G2 at 10 uM incubated for 1 hr by kinase binding assay relative to untreated control
# [42] = system: OVCAR-8; experiment: Cytotoxicity against human OVCAR8 cells after 48 hrs by sulforhodamine B assay; assay type: cell-based; conditions: ovcar-8, 48 h
# [43] = system: SF-539; experiment: Growth inhibition of human SF539 cells after 48 hrs by sulforhodamine B assay; assay type: functional; conditions: SF-539, 48 h
# [44] = target: Casein kinase I isoform gamma-3 (Homo sapiens) (UniProt Q9Y6M4); experiment: Binding affinity to human CSNK1G3 at 10 uM incubated for 1 hr by kinase binding assay relative to untreated control
# Chain of Casein kinase I isoform gamma-3 (Homo sapiens) (Q9Y6M4 whole entry, looked up, canonical isoform): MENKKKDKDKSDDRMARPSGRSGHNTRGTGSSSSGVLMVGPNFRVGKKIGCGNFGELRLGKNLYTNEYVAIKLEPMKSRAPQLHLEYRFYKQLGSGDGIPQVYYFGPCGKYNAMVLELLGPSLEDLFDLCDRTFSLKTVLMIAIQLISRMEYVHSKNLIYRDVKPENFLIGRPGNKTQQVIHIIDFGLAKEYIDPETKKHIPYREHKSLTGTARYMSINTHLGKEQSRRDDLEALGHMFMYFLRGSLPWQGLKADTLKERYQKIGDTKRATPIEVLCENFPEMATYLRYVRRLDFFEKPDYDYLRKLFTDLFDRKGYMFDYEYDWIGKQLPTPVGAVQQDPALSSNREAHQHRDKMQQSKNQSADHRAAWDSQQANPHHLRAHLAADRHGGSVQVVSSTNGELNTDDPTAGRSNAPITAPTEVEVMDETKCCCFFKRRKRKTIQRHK
# Chain of Tyrosine-protein kinase ABL1 (Homo sapiens), P00519 [F317L] (P00519 whole entry F317L): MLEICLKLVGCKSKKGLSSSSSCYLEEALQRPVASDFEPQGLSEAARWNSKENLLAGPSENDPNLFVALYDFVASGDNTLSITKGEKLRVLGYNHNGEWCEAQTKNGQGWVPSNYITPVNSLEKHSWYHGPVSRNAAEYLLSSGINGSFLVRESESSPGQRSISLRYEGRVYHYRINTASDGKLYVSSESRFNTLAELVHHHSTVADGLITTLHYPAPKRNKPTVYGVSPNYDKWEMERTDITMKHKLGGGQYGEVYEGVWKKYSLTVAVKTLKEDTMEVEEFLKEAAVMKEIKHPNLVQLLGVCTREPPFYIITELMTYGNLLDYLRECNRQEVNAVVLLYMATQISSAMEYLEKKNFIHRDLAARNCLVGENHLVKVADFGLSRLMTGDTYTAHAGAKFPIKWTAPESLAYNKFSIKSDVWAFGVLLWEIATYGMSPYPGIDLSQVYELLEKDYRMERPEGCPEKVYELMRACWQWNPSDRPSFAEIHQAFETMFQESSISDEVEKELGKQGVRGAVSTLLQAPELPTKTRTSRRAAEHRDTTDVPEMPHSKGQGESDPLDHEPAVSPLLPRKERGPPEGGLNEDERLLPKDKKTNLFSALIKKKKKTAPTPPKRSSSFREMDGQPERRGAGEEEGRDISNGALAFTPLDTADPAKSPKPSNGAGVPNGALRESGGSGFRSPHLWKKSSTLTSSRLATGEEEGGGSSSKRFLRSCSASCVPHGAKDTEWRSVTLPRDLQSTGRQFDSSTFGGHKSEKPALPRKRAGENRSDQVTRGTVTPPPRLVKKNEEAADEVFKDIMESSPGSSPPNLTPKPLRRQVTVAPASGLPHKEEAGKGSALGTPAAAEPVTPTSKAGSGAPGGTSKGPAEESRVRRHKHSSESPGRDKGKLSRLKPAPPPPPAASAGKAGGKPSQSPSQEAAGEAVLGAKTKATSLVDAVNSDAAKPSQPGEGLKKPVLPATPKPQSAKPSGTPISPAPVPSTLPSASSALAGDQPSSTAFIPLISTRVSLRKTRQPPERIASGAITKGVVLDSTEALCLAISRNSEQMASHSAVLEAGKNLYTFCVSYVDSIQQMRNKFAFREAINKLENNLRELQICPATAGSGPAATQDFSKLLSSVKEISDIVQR
# Chain of Tyrosine-protein kinase ABL1 (Homo sapiens) (P00519 whole entry): as the sequence (P00519 whole entry F317L) above, with L317F counted along it
# Chain of RAC-beta serine/threonine-protein kinase (Homo sapiens) (P31751 whole entry): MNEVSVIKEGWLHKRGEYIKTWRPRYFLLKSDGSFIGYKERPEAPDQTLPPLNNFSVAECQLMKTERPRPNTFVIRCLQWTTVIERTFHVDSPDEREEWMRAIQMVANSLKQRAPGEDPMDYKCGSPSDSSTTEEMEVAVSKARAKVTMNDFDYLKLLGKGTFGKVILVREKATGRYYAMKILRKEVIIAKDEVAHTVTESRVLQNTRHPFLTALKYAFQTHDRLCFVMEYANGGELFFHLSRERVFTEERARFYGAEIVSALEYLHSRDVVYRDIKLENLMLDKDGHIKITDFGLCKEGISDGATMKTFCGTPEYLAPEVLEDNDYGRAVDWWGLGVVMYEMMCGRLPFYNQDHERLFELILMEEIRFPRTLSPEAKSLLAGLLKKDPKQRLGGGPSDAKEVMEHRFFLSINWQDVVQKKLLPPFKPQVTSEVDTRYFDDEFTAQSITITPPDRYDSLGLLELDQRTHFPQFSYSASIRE
# Chain of Mitogen-activated protein kinase 1 (Homo sapiens) (P28482 whole entry): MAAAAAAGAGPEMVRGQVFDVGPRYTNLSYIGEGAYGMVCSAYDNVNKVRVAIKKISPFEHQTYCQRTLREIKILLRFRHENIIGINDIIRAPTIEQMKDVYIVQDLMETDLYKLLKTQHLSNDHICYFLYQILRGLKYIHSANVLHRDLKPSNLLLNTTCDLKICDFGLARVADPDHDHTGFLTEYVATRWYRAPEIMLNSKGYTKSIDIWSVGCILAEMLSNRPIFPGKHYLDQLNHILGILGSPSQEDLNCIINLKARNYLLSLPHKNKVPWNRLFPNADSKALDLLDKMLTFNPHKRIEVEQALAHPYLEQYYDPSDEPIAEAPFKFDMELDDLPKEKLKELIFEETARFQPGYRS
# Chain of Receptor-type tyrosine-protein kinase FLT3 (Homo sapiens) (P36888 whole entry): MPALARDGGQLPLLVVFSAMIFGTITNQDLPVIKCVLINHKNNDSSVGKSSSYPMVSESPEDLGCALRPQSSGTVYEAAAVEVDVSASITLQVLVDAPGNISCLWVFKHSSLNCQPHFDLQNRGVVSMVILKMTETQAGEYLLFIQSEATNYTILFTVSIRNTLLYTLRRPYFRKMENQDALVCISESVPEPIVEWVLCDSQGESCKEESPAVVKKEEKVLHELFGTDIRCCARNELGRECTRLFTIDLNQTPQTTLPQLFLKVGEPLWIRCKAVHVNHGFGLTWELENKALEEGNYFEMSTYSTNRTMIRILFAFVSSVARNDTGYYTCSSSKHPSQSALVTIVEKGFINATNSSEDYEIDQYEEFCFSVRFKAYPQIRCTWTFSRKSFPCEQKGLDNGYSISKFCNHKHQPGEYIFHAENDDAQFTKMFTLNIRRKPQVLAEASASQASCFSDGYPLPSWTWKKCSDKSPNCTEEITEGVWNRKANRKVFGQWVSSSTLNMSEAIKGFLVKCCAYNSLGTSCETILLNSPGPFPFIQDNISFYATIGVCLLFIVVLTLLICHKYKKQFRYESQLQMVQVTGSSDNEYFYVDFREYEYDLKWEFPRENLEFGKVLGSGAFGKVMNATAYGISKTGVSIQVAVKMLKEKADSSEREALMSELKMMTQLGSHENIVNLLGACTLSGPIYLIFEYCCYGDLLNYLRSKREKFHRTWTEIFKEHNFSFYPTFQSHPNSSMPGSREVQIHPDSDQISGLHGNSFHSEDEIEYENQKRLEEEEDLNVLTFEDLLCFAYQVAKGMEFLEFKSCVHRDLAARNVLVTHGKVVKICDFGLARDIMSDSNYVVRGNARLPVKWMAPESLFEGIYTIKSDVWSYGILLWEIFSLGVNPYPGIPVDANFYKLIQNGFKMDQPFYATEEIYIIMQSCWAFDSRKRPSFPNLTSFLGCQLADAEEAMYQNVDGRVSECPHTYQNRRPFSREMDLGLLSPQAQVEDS
# Chain of Casein kinase I isoform gamma-2 (Homo sapiens) (P78368 whole entry, looked up, canonical isoform): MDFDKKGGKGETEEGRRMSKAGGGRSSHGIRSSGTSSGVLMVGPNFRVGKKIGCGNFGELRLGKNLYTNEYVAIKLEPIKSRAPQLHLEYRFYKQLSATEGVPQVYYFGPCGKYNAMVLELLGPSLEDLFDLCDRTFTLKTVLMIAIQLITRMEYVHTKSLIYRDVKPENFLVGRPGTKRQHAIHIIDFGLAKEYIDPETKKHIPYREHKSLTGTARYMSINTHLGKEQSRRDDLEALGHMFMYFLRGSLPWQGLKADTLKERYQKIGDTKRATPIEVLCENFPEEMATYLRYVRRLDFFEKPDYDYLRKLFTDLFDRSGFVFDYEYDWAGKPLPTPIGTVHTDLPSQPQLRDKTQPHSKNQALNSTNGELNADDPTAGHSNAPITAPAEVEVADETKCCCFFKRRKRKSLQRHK
# Chain of Mast/stem cell growth factor receptor Kit (Homo sapiens), P10721 [D816H] (P10721 whole entry D816H): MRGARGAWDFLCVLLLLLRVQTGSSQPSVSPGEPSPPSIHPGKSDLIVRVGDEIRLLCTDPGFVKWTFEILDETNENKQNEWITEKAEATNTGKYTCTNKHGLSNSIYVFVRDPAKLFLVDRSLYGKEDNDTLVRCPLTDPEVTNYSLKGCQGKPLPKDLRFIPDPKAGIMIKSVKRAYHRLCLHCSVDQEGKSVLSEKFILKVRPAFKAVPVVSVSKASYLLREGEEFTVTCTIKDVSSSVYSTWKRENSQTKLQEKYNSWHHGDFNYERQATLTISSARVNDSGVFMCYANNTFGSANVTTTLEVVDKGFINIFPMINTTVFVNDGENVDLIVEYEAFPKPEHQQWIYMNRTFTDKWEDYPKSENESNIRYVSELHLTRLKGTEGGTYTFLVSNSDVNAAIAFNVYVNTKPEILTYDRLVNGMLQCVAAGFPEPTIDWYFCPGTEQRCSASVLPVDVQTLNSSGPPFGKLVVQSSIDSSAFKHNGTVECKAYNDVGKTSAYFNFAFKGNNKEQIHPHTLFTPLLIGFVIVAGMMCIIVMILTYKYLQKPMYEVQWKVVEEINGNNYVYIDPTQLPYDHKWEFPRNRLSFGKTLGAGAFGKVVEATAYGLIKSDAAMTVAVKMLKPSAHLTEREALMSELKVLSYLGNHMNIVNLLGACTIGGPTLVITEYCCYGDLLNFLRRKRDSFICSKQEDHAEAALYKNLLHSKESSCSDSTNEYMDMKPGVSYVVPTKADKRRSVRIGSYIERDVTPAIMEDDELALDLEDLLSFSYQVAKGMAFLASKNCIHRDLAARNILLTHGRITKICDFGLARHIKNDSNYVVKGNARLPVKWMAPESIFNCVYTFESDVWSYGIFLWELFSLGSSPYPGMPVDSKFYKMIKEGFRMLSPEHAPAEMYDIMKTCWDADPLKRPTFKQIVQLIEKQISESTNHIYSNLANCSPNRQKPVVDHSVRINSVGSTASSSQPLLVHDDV
compound,measurement,setting,value
c1ccc(Cc2cnc(N3CCN(c4ncnc5ccccc45)CC3)nc2)cc1,Activity,[1],47%
same,LC50,[2],97.3 µM
same,LC50,[3],> 100 µM
same,TGI,[4],45.5 µM
same,LC50,[5],> 100 µM
same,Activity,[6],> 50%
same,Activity,[7],92%
same,LC50,[8],> 100 µM
same,Activity,[9],89%
same,Activity,[10],> 50%
same,TGI,[11],35.7 µM
same,LC50,[12],> 100 µM
same,LC50,[13],92.8 µM
same,TGI,[14],> 100 µM
same,LC50,[15],> 100 µM
same,Activity,[16],74%
same,Activity,[17],8.4%
same,TGI,[18],51.6 µM
same,LC50,[19],62 µM
same,LC50,[20],> 100 µM
same,LC50,[21],> 100 µM
same,LC50,[22],66.4 µM
same,LC50,[23],> 100 µM
same,LC50,[24],37.7 µM
same,LC50,[25],> 100 µM
same,Activity,[26],75%
same,Activity,[27],30%
same,TGI,[28],25.9 µM
same,LC50,[29],> 100 µM
same,LC50,[30],55 µM
same,LC50,[31],50.1 µM
same,LC50,[32],91.4 µM
same,LC50,[33],54.8 µM
same,TGI,[34],48.4 µM
same,TGI,[35],24.4 µM
same,TGI,[36],40.3 µM
same,TGI,[37],> 100 µM
same,LC50,[38],> 100 µM
same,Activity,[39],100%
same,TGI,[40],38.1 µM
same,Activity,[41],> 50%
same,LC50,[42],71.3 µM
same,TGI,[43],28.5 µM
same,Activity,[44],> 50%
CCc1cnc(N2CCN(C(=O)c3ccc(CNc4ncnc5ccccc45)cc3)CC2)nc1,Activity,[1],> 50%
same,LC50,[2],> 100 µM
same,LC50,[3],> 100 µM
same,TGI,[4],> 100 µM
same,LC50,[5],> 100 µM
same,Activity,[6],6.8%
same,Activity,[7],80%
same,LC50,[8],> 100 µM
same,Activity,[9],82%
same,Activity,[10],13%
same,TGI,[11],> 100 µM
same,LC50,[12],> 100 µM
same,LC50,[13],> 100 µM
same,TGI,[14],> 100 µM
same,LC50,[15],> 100 µM
same,Activity,[16],80%
same,Activity,[17],> 50%
same,TGI,[18],> 100 µM
same,LC50,[19],> 100 µM
same,LC50,[20],> 100 µM
same,LC50,[21],> 100 µM
same,LC50,[22],> 100 µM
same,LC50,[23],> 100 µM
same,LC50,[24],20.8 µM
same,LC50,[25],> 100 µM
same,Activity,[26],100%
same,Activity,[27],> 50%
same,TGI,[28],80.9 µM
same,LC50,[29],> 100 µM
same,LC50,[30],> 100 µM
same,LC50,[31],> 100 µM
same,LC50,[32],> 100 µM
same,LC50,[33],> 100 µM
same,TGI,[34],> 100 µM
same,TGI,[35],59 µM
same,TGI,[36],55.4 µM
same,TGI,[37],> 100 µM
same,LC50,[38],> 100 µM
same,Activity,[39],100%
same,TGI,[40],84.9 µM
same,Activity,[41],18%
same,LC50,[42],> 100 µM
same,TGI,[43],> 100 µM
same,Activity,[44],24%
O=C(c1cccc(Nc2ncnc3ccccc23)c1)N1CCN(c2ncc(Cc3ccccc3)cn2)CC1,Activity,[1],28%
same,LC50,[2],3.89 µM
same,LC50,[3],> 100 µM
same,TGI,[4],7.59 µM
same,LC50,[5],> 100 µM
same,Activity,[6],> 50%
same,Activity,[7],87%
same,LC50,[8],8.91 µM
same,Activity,[9],83%
same,Activity,[10],> 50%
same,TGI,[11],3.09 µM
same,LC50,[12],4.47 µM
same,LC50,[13],> 100 µM
same,TGI,[14],8.91 µM
same,LC50,[15],> 100 µM
same,Activity,[16],95%
same,Activity,[17],> 50%
same,TGI,[18],3.47 µM
same,LC50,[19],> 100 µM
same,LC50,[20],> 100 µM
same,LC50,[21],39.81 µM
same,LC50,[22],> 100 µM
same,LC50,[23],> 100 µM
same,LC50,[24],3.47 µM
same,LC50,[25],> 100 µM
same,Activity,[26],100%
same,Activity,[27],> 50%
same,TGI,[28],1.86 µM
same,LC50,[29],> 100 µM
same,LC50,[30],> 100 µM
same,LC50,[31],> 100 µM
same,LC50,[32],4.57 µM
same,LC50,[33],> 100 µM
same,TGI,[34],2.09 µM
same,TGI,[35],7.08 µM
same,TGI,[36],2.09 µM
same,TGI,[37],2.23 µM
same,LC50,[38],5.25 µM
same,Activity,[39],73%
same,TGI,[40],2.95 µM
same,Activity,[41],43%
same,LC50,[42],> 100 µM
same,TGI,[43],4.9 µM
same,Activity,[44],> 50%
